Measurements published in patent publication US8623813B2, “Synergistic combinations of polyene fungicides and non-ribosomal peptides and related methods of use” (priority 2011, dated 2014).

Key:
Assay type in all cases: cell-based
[1] = test system: Saccharomyces cerevisiae wild-type strain BY4742; assay: Saccharomyces cerevisiae liquid culture growth (OD vs untreated control), Example 1; details: 16 hours at 30° C.
Procedure: A combination of lipopeptides and natamycin was tested for efficacy against Saccharomyces cerevisiae, which is generally recognized as a model organism for testing activity against fungi and which is closely related to Candida. See Smits, G J, et al., “Stress Tolerance in Fungi—To Kill a Spoilage Yeast,” Current Opin Biotechnol., 16(2): 225-30, (2005) and Castrillo, J I, et al., “Yeast as a Touchstone in Post-Genomic Research: Strategies for Integrative Analysis in Functional Genomics,” J Biochem Mol Biol., 37(1): 93-106, (2004).
Saccharomyces cerevisiae wild-type strain BY4742 was grown in liquid YPD in the presence of: (1) natamycin (Haorui Pharma-Chem Inc), (2) the above-described lipopeptide extract, (3) natamycin+lipopeptide extract, and 4) no lipopeptides or natamycin (control). The initial concentration of natamycin before being added to the liquid culture was 1 ppm and the initial concentration of lipopeptide extract was 15 ppm. Final concentration of natamycin in the liquid culture was 0.08 ppm and final concentration of lipopeptide extract was 1.12 ppm, such that the weight to weight ratio of natamycin to lipopeptide in the sample containing both was 1:14. […]
Gowing's Equation was applied, as follows, to determine synergism of lipopeptides with natamycin. […] Thus, X and Y are calculated by subtracting the amount of growth on a treated plate from 100, as shown below. […]

Penicillium expansum = assay: Liquid fungal growth assay in 96-well plates, Penicillium expansum
Procedure: The effect of (i) natamycin (Haorui Pharma-Chem. Inc.), (ii) a crude extract of lipopeptides from Bacillus subtilis QST713 (prepared as described in Example 1), and (iii) a combination of natamycin and a crude extract of lipopeptides on Penicillium expansum was investigated. A liquid fungal growth assay was performed in 96-well plates to determine whether the combination of lipopeptides and natamycin is synergistic in inhibiting fungal growth. All procedures were conducted aseptically.
For each 96 well plate, three separate additions were made to each well. First, 100 μl of potato dextrose broth w/100 ppm chloramphenicol was added. […]
After the incubation period, the growth of each well in each plate was rated by optical density at 600 nm using a PerkinElmer Victor plate-reader using the setting “MIC Settings @600 (0.1 s)” that can be found in the Wallac® Victor® software. The results were also roughly assessed visually as cloudy wells (partial growth) appearing in the dilution series where the sample fell off in activity.
After an OD was obtained for each well, the relative growth was determined by the following calculation: [(Treatment w/Bacteria)−(Treatment w/o Bacteria)/(Diluent Control w/Bacteria)−(Diluent Control w/o Bacteria)]×100. […]
Synergy was then determined by Gowing's Equation, set forth above. […]

Geotrichum candidum = assay: Liquid fungal growth assay in 96-well plates, Geotrichum candidum; details: combinations 1:1 w/w
Procedure: For each 96 well plate, three separate additions were made to each well. First, 100 μl of potato dextrose broth w/100 ppm chloramphenicol was added. […] Finally, 50 μl of DI H2O was added to the blank plate (the plate intended to be left blank for an OD reference) OR 50 μl of 10^5 fungal inoculum was added to each well in its respective plate(s). […] The plates were then covered with lids and placed at 20° C. for 3 days of incubation. After the incubation period, the growth of each well in each plate was rated by optical density at 600 nm using a PerkinElmer Victor plate-reader using the setting “MIC Settings @600 (0.1 s)” that can be found in the Wallac® Victor® software. The results were also roughly assessed visually as cloudy wells (partial growth) appearing in the dilution series where the sample fell off in activity. After an OD was obtained for each well, the relative growth was determined by the following calculation: [(Treatment w/Bacteria)-(Treatment w/o Bacteria)/(Diluent Control w/Bacteria)-(Diluent Control w/o Bacteria)]×100. The positive control wells for bacterial growth were considered acceptable if the average and standard deviation of the OD readings at 600 nm were well above the range of the non-inoculated OD reference wells. […] Synergy was then determined by Gowing's Equation, set forth above. […]

Saccharomyces cerevisiae = assay: Liquid fungal growth assay in 96-well plates (YPD), Saccharomyces cerevisiae; details: combinations 1:1 w/w
[2] = test system: Geotrichum citri-aurantii; assay: Liquid fungal growth assay in 96-well plates, Geotrichum citri-aurantii; details: each component 2.23 ppm final, combinations 1:1 w/w
Procedure: For each 96 well plate, three separate additions were made to each well. First, 100 μl of potato dextrose broth w/100 ppm chloramphenicol was added. Then 25 μl of each sample (lipopeptides, natamycin, or combo from dilution plate) was supplemented. Finally, 50 μl of DI H2O was added to the blank plate (the plate intended to be left blank for an OD reference) OR 50 μl of 10^5 fungal inoculum was added to each well in its respective plate(s). […] The plates were then covered with lids and placed at 20° C. for 3 days of incubation. After the incubation period, the growth of each well in each plate was rated by optical density at 600 nm using a PerkinElmer Victor plate-reader using the setting “MIC Settings @600 (0.1 s)” that can be found in the Wallac® Victor® software. The results were also roughly assessed visually as cloudy wells (partial growth) appearing in the dilution series where the sample fell off in activity. After an OD was obtained for each well, the relative growth was determined by the following calculation: [(Treatment w/Bacteria)-(Treatment w/o Bacteria)/(Diluent Control w/Bacteria)-(Diluent Control w/o Bacteria)]×100. The positive control wells for bacterial growth were considered acceptable if the average and standard deviation of the OD readings at 600 nm were well above the range of the non-inoculated OD reference wells. […]

Row | Structure (SMILES) | inhibition at 0.08 ppm ([1]; Saccharomyces cerevisiae, natamycin 0.08 ppm, lipopeptide extract 1.12 ppm final, read-out: growth inhibition (X, Y, Eob = 100 − growth)) | growth (OD) normalized to untreated control set at 100% ([1]; natamycin 0.08 ppm final, lipopeptide extract 1.12 ppm final (1:14 w/w), liquid YPD) | Percent Growth (Penicillium expansum; 1.1 ppm final of each component, 3 days at 20° C., OD 600 nm) | % of Growth of the Given Compound(s) at 2.23 ppm (Penicillium expansum; each component 2.23 ppm final, combinations 1:1 w/w) | % of Growth of the Given Compound(s) at 2.23 ppm (Geotrichum candidum; natamycin series, each component 2.23 ppm final) | % of Growth of the Given Compound(s) at 1.12 ppm (Saccharomyces cerevisiae; natamycin series, each component 1.12 ppm final, 30° C. overnight) | % of Growth of the Given Compound(s) at 2.23 ppm ([2]; natamycin series) | % of Growth of the Given Compound(s) at 1.12 ppm (Geotrichum candidum; nystatin series, each component 1.12 ppm final) | % of Growth of the Given Compound(s) at 0.56 ppm (Saccharomyces cerevisiae; nystatin series, each component 0.56 ppm final) | % of Growth of the Given Compound(s) at 2.23 ppm ([2]; nystatin series)
1 | C[C@@H]1C/C=C/C=C/C=C/C=C/[C@H](O[C@@H]2O[C@H](C)[C@@H](O)[C@H](N)[C@@H]2O)C[C@@H]2O[C@](O)(C[C@@H](O)C[C@H]3O[C@@H]3/C=C/C(=O)O1)C[C@H](O)[C@H]2C(=O)O [Natamycin, natamycin] | 22.1% | 77.89% | 102% | 35.38% | 110.4% | 97.4% | 57.4% | – | – | –
2 | C[C@@H]1[C@H](O)[C@@H](C)/C=C/C=C/CC/C=C/C=C/C=C/C=C/C(O[C@H]2O[C@H](C)[C@@H](O)[C@H](N)[C@@H]2O)CC2O[C@](O)(CC(O)C(O)CCC(O)CC(O)CC(O)CC(=O)O[C@H]1C)CC(O)C2C(=O)O (stereo partly shown) [Nystatin, nystatin] | – | – | – | – | – | – | – | 96.2% | 96.5% | 30.5%
